Experimental data taken from US20250353891A1 (MEDIMMUNE LIMITED, priority 2022, published 2025).
pEC50: −log10 of the molar value. Starred links: 1 amine or outer side, 2 acyl side, 3 side chain; linkers in the order of their positions; H or OH if unused. Non-standard residues stand in square brackets, D forms with d. Residues, ends and D or L forms follow the SMILES beside them. Groups on a side chain read outwards from the residue. *: point of attachment. C20 diacid = O=C(O)CCCCCCCCCCCCCCCCCCC(=O)*; C18 diacid = O=C(O)CCCCCCCCCCCCCCCCC(=O)*; γGlu = O=C(O)[C@H](CCC(=O)[*:2])N[*:1]; αMeF = C[C@](N)(Cc1ccccc1)C(=O)O; NMeQ = CN[C@@H](CCC(N)=O)C(=O)O; αMeQ = C[C@](N)(CCC(N)=O)C(=O)O; AEEA = NCCOCCOCC(=O)O; Aib = CC(C)(N)C(=O)O

Key:
[1] = target: human GLP-1 receptor (hGLP-1R) (Homo sapiens, UniProt P43220); test: cAMP production (HTRF) in CHO cells expressing hGLP-1R; format: cell-based; design: expressed in transfected cells; conditions: for pEC50: Table 7, peptides modified at position 20, cAMP in CHO hGLP-1R cells, geometric mean, read-out: hGLP-1R EC50; for % Relative Potency Ratio: Table 7, % GLP-1R activity relative to GLP-1 / % GlucR activity relative to glucagon
Sequence of human GLP-1 receptor (hGLP-1R) (P43220 24-463): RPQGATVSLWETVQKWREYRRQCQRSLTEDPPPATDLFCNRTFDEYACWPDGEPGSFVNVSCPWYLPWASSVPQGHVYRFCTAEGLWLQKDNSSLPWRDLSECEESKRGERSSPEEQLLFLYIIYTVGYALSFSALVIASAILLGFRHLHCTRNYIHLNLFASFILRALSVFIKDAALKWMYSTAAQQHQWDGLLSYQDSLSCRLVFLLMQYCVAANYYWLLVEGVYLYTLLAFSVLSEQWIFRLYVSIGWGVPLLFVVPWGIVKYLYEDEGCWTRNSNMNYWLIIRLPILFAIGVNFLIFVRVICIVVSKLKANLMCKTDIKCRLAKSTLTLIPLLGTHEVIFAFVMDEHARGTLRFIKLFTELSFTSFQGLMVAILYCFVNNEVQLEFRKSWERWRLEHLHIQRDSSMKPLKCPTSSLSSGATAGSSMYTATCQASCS
Method in brief: (§1)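 Cells were resuspended in assay buffer at batch-optimized density, typically 1×10^5 cells/mL for hGLP-1R and 2×10^5 cells/mL for hGCGR. After 30 min incubation at room temperature with compound, cAMP was measured by two-step HTRF. EC50 values came from 4-parameter logistic fits of % Delta F.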

[2] = target: human glucagon receptor (hGCGR) (Homo sapiens, UniProt P47871); test: cAMP production (HTRF) in CHO cells expressing hGCGR; format: cell-based; design: expressed in transfected cells; conditions: Table 7, peptides modified at position 20; cAMP in CHO hGCGR cells; geometric mean; read-out: hGluc-R EC50
Sequence of human glucagon receptor (hGCGR) (P47871 26-477): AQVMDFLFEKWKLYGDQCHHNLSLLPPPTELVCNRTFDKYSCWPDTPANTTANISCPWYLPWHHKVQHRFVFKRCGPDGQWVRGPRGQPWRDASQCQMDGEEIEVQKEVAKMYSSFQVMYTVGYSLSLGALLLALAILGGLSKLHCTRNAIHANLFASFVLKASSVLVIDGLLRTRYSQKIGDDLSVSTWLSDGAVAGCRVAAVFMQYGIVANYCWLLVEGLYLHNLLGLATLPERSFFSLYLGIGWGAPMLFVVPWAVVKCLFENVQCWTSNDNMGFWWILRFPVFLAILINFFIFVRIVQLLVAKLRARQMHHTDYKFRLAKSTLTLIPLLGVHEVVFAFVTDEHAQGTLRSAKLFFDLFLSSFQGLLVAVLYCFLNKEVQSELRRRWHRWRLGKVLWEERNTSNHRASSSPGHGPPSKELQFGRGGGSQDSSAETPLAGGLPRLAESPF
Method in brief: as §1

SMILES	pEC50 [1]	% Relative Potency Ratio [1]	pEC50 [2]
CC(C)C[C@H](NC(=O)[C@H](Cc1c[nH]c2ccccc12)NC(=O)[C@H](CCC(N)=O)NC(=O)[C@@H](NC(=O)[C@H](Cc1ccccc1)NC(=O)[C@H](CC(=O)O)NC(=O)[C@H](CCCCNC(=O)COCCOCCNC(=O)COCCOCCNC(=O)CC[C@H](NC(=O)CCCCCCCCCCCCCCCCC(=O)O)C(=O)O)NC(=O)[C@H](C)NC(=O)C(C)(C)NC(=O)[C@H](CCCNC(=N)N)NC(=O)[C@H](CO)NC(=O)[C@H](CC(=O)O)NC(=O)[C@H](CC(C)C)NC(=O)[C@](C)(Cc1ccccc1)NC(=O)[C@H](CCCCN)NC(=O)[C@H](CO)NC(=O)[C@@H](NC(=O)[C@H](CC(=O)O)NC(=O)[C@H](CO)NC(=O)[C@@H](NC(=O)[C@H](Cc1ccccc1)NC(=O)[C@@H](NC(=O)CNC(=O)[C@H](CCC(N)=O)NC(=O)C(C)(C)NC(=O)[C@@H](N)Cc1c[nH]cn1)[C@@H](C)O)[C@@H](C)O)C(C)C)C(C)C)C(=O)N[C@@H](CC(C)C)C(=O)N[C@@H](CC(N)=O)C(=O)N[C@H](C(=O)O)[C@@H](C)O [Peptide 313]	9.86	17.6	8.91
CC(C)C[C@H](NC(=O)C(C)(C)NC(=O)[C@H](CCC(N)=O)NC(=O)[C@@H](NC(=O)[C@H](Cc1ccccc1)NC(=O)[C@H](CC(=O)O)NC(=O)[C@H](CCCCNC(=O)COCCOCCNC(=O)COCCOCCNC(=O)CC[C@H](NC(=O)CCCCCCCCCCCCCCCCC(=O)O)C(=O)O)NC(=O)[C@H](C)NC(=O)C(C)(C)NC(=O)[C@H](CCCNC(=N)N)NC(=O)[C@H](CO)NC(=O)[C@H](CC(=O)O)NC(=O)[C@H](CC(C)C)NC(=O)[C@](C)(Cc1ccccc1)NC(=O)[C@H](CCCCN)NC(=O)[C@H](CO)NC(=O)[C@@H](NC(=O)[C@H](CC(=O)O)NC(=O)[C@H](CO)NC(=O)[C@@H](NC(=O)[C@H](Cc1ccccc1)NC(=O)[C@@H](NC(=O)CNC(=O)[C@H](CCC(N)=O)NC(=O)C(C)(C)NC(=O)[C@@H](N)Cc1c[nH]cn1)[C@@H](C)O)[C@@H](C)O)C(C)C)C(C)C)C(=O)N[C@H](C(=O)N[C@@H](C)C(=O)N[C@H](C(N)=O)[C@@H](C)O)C(C)C [Peptide 314] (H-H[Aib]QGTFTSDVSK[αMeF]LDSR[Aib]AK([AEEA-AEEA-γGlu-C18 diacid])DFVQ[Aib]LVAT-NH2; N-terminus assumed)	10.51	439.3	8.17
CC(C)C[C@H](NC(=O)C(C)(C)NC(=O)[C@H](CCC(N)=O)NC(=O)[C@@H](NC(=O)[C@H](Cc1ccccc1)NC(=O)[C@H](CC(=O)O)NC(=O)[C@H](CCCCNC(=O)COCCOCCNC(=O)COCCOCCNC(=O)CC[C@H](NC(=O)CCCCCCCCCCCCCCCCC(=O)O)C(=O)O)NC(=O)[C@H](C)NC(=O)[C@H](C)NC(=O)[C@H](CCCNC(=N)N)NC(=O)[C@H](CO)NC(=O)[C@H](CC(=O)O)NC(=O)[C@H](CC(C)C)NC(=O)[C@](C)(Cc1ccccc1)NC(=O)[C@H](CCCCN)NC(=O)[C@H](CO)NC(=O)[C@@H](NC(=O)[C@H](CC(=O)O)NC(=O)[C@H](CO)NC(=O)[C@@H](NC(=O)[C@H](Cc1ccccc1)NC(=O)[C@@H](NC(=O)CNC(=O)[C@H](CCC(N)=O)NC(=O)C(C)(C)NC(=O)[C@@H](N)Cc1c[nH]cn1)[C@@H](C)O)[C@@H](C)O)C(C)C)C(C)C)C(=O)N[C@H](C(=O)N[C@@H](C)C(=O)N[C@H](C(N)=O)[C@@H](C)O)C(C)C [Peptide 315]	10.74	639.1	8.23
CC[C@H](C)[C@H](NC(=O)[C@H](Cc1c[nH]c2ccccc12)NC(=O)[C@H](CCC(N)=O)NC(=O)[C@@H](NC(=O)[C@H](Cc1ccccc1)NC(=O)[C@H](CC(=O)O)NC(=O)[C@H](CCCCNC(=O)COCCOCCNC(=O)COCCOCCNC(=O)CC[C@H](NC(=O)CCCCCCCCCCCCCCCCC(=O)O)C(=O)O)NC(=O)[C@H](C)NC(=O)[C@H](C)NC(=O)[C@H](CCCNC(=N)N)NC(=O)[C@H](CO)NC(=O)[C@H](CC(=O)O)NC(=O)[C@H](CC(C)C)NC(=O)[C@](C)(Cc1ccccc1)NC(=O)[C@H](CCCCN)NC(=O)[C@H](CO)NC(=O)[C@@H](NC(=O)[C@H](CC(=O)O)NC(=O)[C@H](CO)NC(=O)[C@@H](NC(=O)[C@H](Cc1ccccc1)NC(=O)[C@@H](NC(=O)CNC(=O)[C@H](CCC(N)=O)NC(=O)[C@](C)(CO)NC(=O)[C@@H](N)Cc1c[nH]cn1)[C@@H](C)O)[C@@H](C)O)C(C)C)C(C)C)C(=O)N[C@@H](C)C(=O)N[C@@H](CC(N)=O)C(=O)N[C@H](C(N)=O)[C@@H](C)O [Peptide 318]	10.26	429.7	7.92
CC[C@H](C)[C@H](NC(=O)C(C)(C)NC(=O)[C@H](CCC(N)=O)NC(=O)[C@@H](NC(=O)[C@](C)(Cc1ccccc1)NC(=O)[C@H](CC(=O)O)NC(=O)[C@H](CCCCNC(=O)COCCOCCNC(=O)COCCOCCNC(=O)CC[C@H](NC(=O)CCCCCCCCCCCCCCCCC(=O)O)C(=O)O)NC(=O)[C@H](C)NC(=O)[C@H](C)NC(=O)[C@H](CCCNC(=N)N)NC(=O)[C@H](CO)NC(=O)[C@H](CC(=O)O)NC(=O)[C@H](CC(C)C)NC(=O)[C@](C)(Cc1ccccc1)NC(=O)[C@H](CCCCN)NC(=O)[C@H](CO)NC(=O)[C@@H](NC(=O)[C@H](CC(=O)O)NC(=O)[C@H](CO)NC(=O)[C@@H](NC(=O)[C@](C)(Cc1ccccc1)NC(=O)[C@H](CO)NC(=O)CNC(=O)[C@H](CCC(N)=O)NC(=O)C(C)(C)NC(=O)[C@@H](N)Cc1c[nH]cn1)[C@@H](C)O)C(C)C)C(C)C)C(=O)N[C@@H](C)C(=O)N[C@@H](CC(N)=O)C(=O)N[C@H](C(N)=O)[C@@H](C)O [Peptide 321] (H-H[Aib]QGS[αMeF]TSDVSK[αMeF]LDSRAAK([AEEA-AEEA-γGlu-C18 diacid])D[αMeF]VQ[Aib]IANT-NH2)	10.65	384.7	8.36
CC[C@H](C)[C@H](NC(=O)C(C)(C)NC(=O)[C@H](CCC(N)=O)NC(=O)[C@@H](NC(=O)[C@](C)(Cc1ccccc1)NC(=O)[C@H](CC(=O)O)NC(=O)[C@H](CCCCNC(=O)COCCOCCNC(=O)COCCOCCNC(=O)CC[C@H](NC(=O)CC[C@H](NC(=O)CCCCCCCCCCCCCCCCCCC(=O)O)C(=O)O)C(=O)O)NC(=O)[C@H](C)NC(=O)[C@H](C)NC(=O)[C@H](CCCNC(=N)N)NC(=O)[C@H](CO)NC(=O)[C@H](CC(=O)O)NC(=O)[C@H](CC(C)C)NC(=O)[C@](C)(Cc1ccccc1)NC(=O)[C@H](CCCCN)NC(=O)[C@H](CO)NC(=O)[C@@H](NC(=O)[C@H](CC(=O)O)NC(=O)[C@H](CO)NC(=O)[C@@H](NC(=O)[C@](C)(Cc1ccccc1)NC(=O)[C@H](CO)NC(=O)CNC(=O)[C@H](CCC(N)=O)NC(=O)C(C)(C)NC(=O)[C@@H](N)Cc1c[nH]cn1)[C@@H](C)O)C(C)C)C(C)C)C(=O)N[C@@H](C)C(=O)N[C@@H](CC(N)=O)C(=O)N[C@H](C(N)=O)[C@@H](C)O [Peptide 322] (H-H[Aib]QGS[αMeF]TSDVSK[αMeF]LDSRAAK([AEEA-AEEA-γGlu-γGlu-C20 diacid])D[αMeF]VQ[Aib]IANT-NH2)	10.17		< 7.61
CC[C@H](C)[C@H](NC(=O)C(C)(C)NC(=O)[C@H](CCC(N)=O)NC(=O)[C@@H](NC(=O)[C@](C)(Cc1ccccc1)NC(=O)[C@H](CC(=O)O)NC(=O)[C@H](CCCCNC(=O)COCCOCCNC(=O)COCCOCCNC(=O)CC[C@H](NC(=O)CCCCCCCCCCCCCCCCC(=O)O)C(=O)O)NC(=O)[C@H](C)NC(=O)[C@H](C)NC(=O)[C@H](CCCNC(=N)N)NC(=O)[C@H](CO)NC(=O)[C@H](CC(=O)O)NC(=O)[C@H](CC(C)C)NC(=O)[C@](C)(Cc1ccccc1)NC(=O)[C@H](CCCCN)NC(=O)[C@H](CO)NC(=O)[C@@H](NC(=O)[C@H](CC(=O)O)NC(=O)[C@H](CO)NC(=O)[C@@H](NC(=O)[C@](C)(Cc1ccccc1)NC(=O)[C@H](CO)NC(=O)CNC(=O)[C@](C)(CCC(N)=O)NC(=O)[C@H](CO)NC(=O)[C@@H](N)Cc1c[nH]cn1)[C@@H](C)O)C(C)C)C(C)C)C(=O)N[C@@H](C)C(=O)N[C@@H](CC(N)=O)C(=O)N[C@H](C(N)=O)[C@@H](C)O [Peptide 323] (H-HS[αMeQ]GS[αMeF]TSDVSK[αMeF]LDSRAAK([AEEA-AEEA-γGlu-C18 diacid])D[αMeF]VQ[Aib]IANT-NH2)	7.94		< 7.59
CC[C@H](C)[C@H](NC(=O)C(C)(C)NC(=O)[C@H](CCC(N)=O)NC(=O)[C@@H](NC(=O)[C@](C)(Cc1ccccc1)NC(=O)[C@H](CC(=O)O)NC(=O)[C@H](CCCCNC(=O)COCCOCCNC(=O)COCCOCCNC(=O)CC[C@H](NC(=O)CCCCCCCCCCCCCCCCC(=O)O)C(=O)O)NC(=O)[C@H](C)NC(=O)[C@H](C)NC(=O)[C@H](CCCNC(=N)N)NC(=O)[C@H](CO)NC(=O)[C@H](CC(=O)O)NC(=O)[C@H](CC(C)C)NC(=O)[C@](C)(Cc1ccccc1)NC(=O)[C@H](CCCCN)NC(=O)[C@H](CO)NC(=O)[C@@H](NC(=O)[C@H](CC(=O)O)NC(=O)[C@H](CO)NC(=O)[C@@H](NC(=O)[C@](C)(Cc1ccccc1)NC(=O)[C@H](CO)NC(=O)CNC(=O)[C@H](CCC(N)=O)N(C)C(=O)[C@H](CO)NC(=O)[C@@H](N)Cc1c[nH]cn1)[C@@H](C)O)C(C)C)C(C)C)C(=O)N[C@@H](C)C(=O)N[C@@H](CC(N)=O)C(=O)N[C@H](C(N)=O)[C@@H](C)O [Peptide 325] (H-HS[NMeQ]GS[αMeF]TSDVSK[αMeF]LDSRAAK([AEEA-AEEA-γGlu-C18 diacid])D[αMeF]VQ[Aib]IANT-NH2)	9.03		< 7.59
